Structures are written as SMILES. Activity calls are given as the source filed them. The calls are words filed in the database; no cut-off is given here.

For orientation: LC50 means the concentration lethal to half of the exposed cells or organisms. Read a high LC50 as lower toxicity.

One data set deals with Halomonas aquamarina. As to the kind of experiment: Antibacterial activity against Alcaligenes aquamarinus at 100 ug/disk after 24 hrs by paper disk diffusion assay. In kind it is functional, organism-based. The note with it: Vreelandella aquamarina.
Data set [1] in a line: Toxicity against Artemia salina nauplii after 24 hrs. It counts as organism-based. Particulars: in vivo.
In the next data set the test system is Escherichia coli. Briefly: Antibacterial activity against Escherichia coli at 100 ug/disk after 24 hrs by paper disk diffusion assay. It counts as functional, organism-based.

With `C#C/C=C\C[C@@H]1O[C@H](/C=C/C)C/C=C\C[C@@H]1Cl`, the outcome with Halomonas aquamarina and with Escherichia coli was inactive. The compound further returned an LC50 at 24 h in data set [1] of 467 µM.

Consider `CC1(C)[C@H](Br)C[C@H](O)[C@]1(C)[C@@]1(O)CC[C@]2(C)[C@@H](Br)CC[C@@](C)(O)[C@@]2(O)C1` [NEOIRIETETRAOL], for which the outcome in the data set with Halomonas aquamarina and in the data set with Escherichia coli was Active. In data set [1], this compound returned an LC50 at 24 h of 40.1 µM.

Values taken from ChEMBL document CHEMBL1159333, “Halogenated metabolites from the new Okinawan red alga Laurencia yonaguniensis” (J Nat Prod, 2002).
